Laboratory results taken from PubChem BioAssay AID256 (DTP/NCI, 2004).
Several values for one entry are separate records, joined by “and”; a condition that tells them apart may be missing. Equal values may be shown once. Inconclusive results and toxic doses are left out.

System: CD2F1 mice, L1210 leukemia ip, survival T/C
Experiment: NCI In Vivo Anticancer Drug Screen. Data for tumor model L1210 Leukemia (intraperitoneal) in CD2F1 (CDF1) mice
Settings: higher = longer survival
Summary of the method: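 Tumor-bearing mice (transplanted tumor) were split into treated and vehicle control groups, and the measured endpoint of each treated group was divided by that of its vehicle controls.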

[1] = endpoint: mean survival time, dose: 100.0 mg/kg/injection, schedule: Q04DX003 (ip), vehicle: saline with Tween-80
[2] = endpoint: mean survival time, dose: 200.0 mg/kg/injection, schedule: Q04DX003 (ip), vehicle: saline with Tween-80
[3] = endpoint: mean survival time, dose: 400.0 mg/kg/injection, schedule: Q04DX003 (ip), vehicle: saline with Tween-80
[4] = endpoint: mean survival time, dose: 100.0 mg/kg/injection, schedule: Q04DX002 (ip), vehicle: saline with Tween-80
[5] = endpoint: mean survival time, dose: 200.0 mg/kg/injection, schedule: Q04DX002 (ip), vehicle: saline with Tween-80
[6] = endpoint: mean survival time, dose: 50.0 mg/kg/injection, schedule: Q01DX009 (ip), vehicle: saline
[7] = endpoint: mean survival time, dose: 100.0 mg/kg/injection, schedule: Q01DX009 (ip), vehicle: saline
[8] = endpoint: mean survival time, dose: 100.0 mg/kg/injection, schedule: Q04DX003 (ip), vehicle: saline
[9] = endpoint: mean survival time, dose: 100.0 mg/kg/injection, schedule: Q01DX009 (ip), vehicle: saline with Tween-80
[10] = endpoint: mean survival time, dose: 200.0 mg/kg/injection, schedule: Q01DX009 (ip), vehicle: saline with Tween-80
[11] = endpoint: mean survival time, dose: 400.0 mg/kg/injection, schedule: Q01DX009 (ip), vehicle: saline with Tween-80
[12] = endpoint: mean survival time, dose: 400.0 mg/kg/injection, schedule: Q04DX002 (ip), vehicle: saline with Tween-80
[13] = endpoint: mean survival time, dose: 100.0 mg/kg/injection, schedule: Q01DX001 (ip), vehicle: saline with Tween-80
[14] = endpoint: mean survival time, dose: 200.0 mg/kg/injection, schedule: Q01DX001 (ip), vehicle: saline with Tween-80
[15] = endpoint: mean survival time, dose: 400.0 mg/kg/injection, schedule: Q01DX001 (ip), vehicle: saline with Tween-80

COc1cc2c(c(OC)c1OC)-c1cc3c(cc1[C@@H](OC(C)=O)[C@@H]1COC(=O)[C@H]1C2)OCO3
T/C (endpoint: mean survival time, dose: 1.25 mg/kg/injection, schedule: Q01DX009 (ip), vehicle: Klucel (hydroxypropylcellulose) (HPC)): 95 % of control | T/C (endpoint: mean survival time, dose: 2.5 mg/kg/injection, schedule: Q01DX009 (ip), vehicle: Klucel (hydroxypropylcellulose) (HPC)): 103 % of control | T/C (endpoint: mean survival time, dose: 5.0 mg/kg/injection, schedule: Q01DX009 (ip), vehicle: Klucel (hydroxypropylcellulose) (HPC)): 97 % of control | T/C (endpoint: mean survival time, dose: 10.0 mg/kg/injection, schedule: Q01DX009 (ip), vehicle: Klucel (hydroxypropylcellulose) (HPC)): 112 % of control

COc1ccc(NC(=O)CC(C)C(=O)O)cc1 (stereo unspecified)
T/C [1]: 101 % of control | T/C [2]: 100 % of control | T/C [3]: 101 % of control

N#CC12CC3CC(CC(C3)C1)C2
T/C (endpoint: mean survival time, dose: 5.0 mg/kg/injection, schedule: Q04DX003 (ip), vehicle: saline with Tween-80): 104 % of control | T/C (endpoint: mean survival time, dose: 10.0 mg/kg/injection, schedule: Q04DX003 (ip), vehicle: saline with Tween-80): 104 % of control | T/C (endpoint: mean survival time, dose: 20.0 mg/kg/injection, schedule: Q04DX003 (ip), vehicle: saline with Tween-80): 100 % of control

O=C1CC(c2ccccc2)=NN1c1ccccc1
T/C (endpoint: mean survival time, dose: 100.0 mg/kg/injection, schedule: Q04DX003 (ip), vehicle: Klucel (hydroxypropylcellulose) (HPC)): 98 % of control | T/C (endpoint: mean survival time, dose: 200.0 mg/kg/injection, schedule: Q04DX003 (ip), vehicle: Klucel (hydroxypropylcellulose) (HPC)): 95 % of control | T/C (endpoint: mean survival time, dose: 400.0 mg/kg/injection, schedule: Q04DX003 (ip), vehicle: Klucel (hydroxypropylcellulose) (HPC)): 101 % of control

CCCCNC(=O)Nc1cccc2c(O)cccc12
T/C (endpoint: mean survival time, dose: 50.0 mg/kg/injection, schedule: Q01DX009 (ip), vehicle: DMSO): 97 % of control

O=[N+]([O-])c1ccc(OC(=S)c2ccccc2)cc1
T/C [4]: 96 % of control | T/C [5]: 96 % of control

CC1=CC(=O)c2ccccc2C1=O
T/C (endpoint: mean survival time, dose: 9.0 mg/kg/injection, schedule: Q01DX009 (ip), vehicle: other): 100 % of control | T/C (endpoint: mean survival time, dose: 13.5 mg/kg/injection, schedule: Q01DX009 (ip), vehicle: other): 114 % of control | T/C (endpoint: mean survival time, dose: 20.0 mg/kg/injection, schedule: Q01DX001 (ip), vehicle: other): 95 % of control | T/C (endpoint: mean survival time, dose: 20.0 mg/kg/injection, schedule: Q01DX009 (ip), vehicle: other): 97 % of control | T/C (endpoint: mean survival time, dose: 30.0 mg/kg/injection, schedule: Q01DX009 (ip), vehicle: other): 97 % of control | T/C (endpoint: mean survival time, dose: 40.0 mg/kg/injection, schedule: Q01DX001 (ip), vehicle: other): 104 % of control | T/C (endpoint: mean survival time, dose: 60.0 mg/kg/injection, schedule: Q01DX001 (ip), vehicle: other): 104 % of control | T/C (endpoint: mean survival time, dose: 90.0 mg/kg/injection, schedule: Q01DX001 (ip), vehicle: other): 104 % of control

CCCOP(=O)(N1CC1(C)C)N1CC1(C)C (stereo unspecified)
T/C (endpoint: mean survival time, dose: 6.3 mg/kg/injection, schedule: Q04DX003 (ip), vehicle: saline): 101 % of control | T/C (endpoint: mean survival time, dose: 12.5 mg/kg/injection, schedule: Q04DX003 (ip), vehicle: saline): 101 % of control | T/C (endpoint: mean survival time, dose: 25.0 mg/kg/injection, schedule: Q01DX009 (ip), vehicle: saline): 119 % of control | T/C (endpoint: mean survival time, dose: 25.0 mg/kg/injection, schedule: Q04DX003 (ip), vehicle: saline): 124 % of control | T/C [6]: 188 % of control | T/C [7]: 156 % of control and 186 % of control | T/C [8]: 124 % of control

Nc1ncnc2c1nnn2Cc1ccco1
T/C (endpoint: mean survival time, dose: 12.5 mg/kg/injection, schedule: Q01DX005 (ip), vehicle: other): 96 % of control | T/C (endpoint: mean survival time, dose: 25.0 mg/kg/injection, schedule: Q01DX005 (ip), vehicle: other): 89 % of control | T/C (endpoint: mean survival time, dose: 50.0 mg/kg/injection, schedule: Q01DX005 (ip), vehicle: other): 89 % of control | T/C (endpoint: mean survival time, dose: 100.0 mg/kg/injection, schedule: Q01DX005 (ip), vehicle: other): 93 % of control | T/C (endpoint: mean survival time, dose: 200.0 mg/kg/injection, schedule: Q01DX005 (ip), vehicle: other): 96 % of control

O=CN(Cc1ccccc1)c1cc([N+](=O)[O-])ccc1OCc1ccccc1
T/C (endpoint: mean survival time, dose: 100.0 mg/kg/injection, schedule: Q01DX001 (ip), vehicle: saline): 96 % of control | T/C (endpoint: mean survival time, dose: 200.0 mg/kg/injection, schedule: Q01DX001 (ip), vehicle: saline): 94 % of control | T/C (endpoint: mean survival time, dose: 400.0 mg/kg/injection, schedule: Q01DX001 (ip), vehicle: saline): 100 % of control

Cc1ccc(O)c2ncccc12
T/C [9]: 114 % of control | T/C [10]: 97 % of control | T/C [11]: 103 % of control

CC(=O)N[C@H](CO)[C@H](O)c1ccc([N+](=O)[O-])cc1
T/C (endpoint: mean survival time, dose: 75.0 mg/kg/injection, schedule: Q01DX009 (ip), vehicle: saline with Tween-80): 96 % of control | T/C (endpoint: mean survival time, dose: 150.0 mg/kg/injection, schedule: Q01DX009 (ip), vehicle: saline with Tween-80): 96 % of control | T/C (endpoint: mean survival time, dose: 300.0 mg/kg/injection, schedule: Q01DX009 (ip), vehicle: saline with Tween-80): 95 % of control

C/C=C\C1OC1(C)c1cc(=O)c2c(C)cc3c(c2o1)C(=O)c1c(O)c(C2CC(C)(N(C)C)C(OC(C)=O)C(C)O2)cc(C2CC(N(C)C)C(O)C(C)O2)c1C3=O (stereo unspecified)
T/C (endpoint: mean survival time, dose: 0.35 mg/kg/injection, schedule: Q04DX003 (ip), vehicle: saline with Tween-80): 102 % of control | T/C (endpoint: median survival time, dose: 0.22 mg/kg/injection, schedule: Q01DX005 (ip), vehicle: saline + alcohol): 124 % of control | T/C (endpoint: median survival time, dose: 0.25 mg/kg/injection, schedule: Q01DX005 (ip), vehicle: saline + alcohol): 120 % of control | T/C (endpoint: median survival time, dose: 0.36 mg/kg/injection, schedule: Q01DX005 (ip), vehicle: saline + alcohol): 120 % of control | T/C (endpoint: median survival time, dose: 1.0 mg/kg/injection, schedule: Q01DX005 (ip), vehicle: saline + alcohol): 120 % of control | T/C (endpoint: median survival time, dose: 2.78 mg/kg/injection, schedule: Q01DX005 (ip), vehicle: saline + alcohol): 172 % of control

O=C(Nc1cccc(I)c1)OCCCl
T/C [4]: 89 % of control | T/C [5]: 92 % of control | T/C [12]: 92 % of control

CCOC(=O)/C=C/c1cccc([N+](=O)[O-])c1
T/C [13]: 101 % of control | T/C [14]: 101 % of control | T/C [15]: 108 % of control

COc1ccc(-n2cnc3c(=O)[nH]cnc32)cc1
T/C [4]: 86 % of control | T/C [5]: 90 % of control | T/C [12]: 86 % of control

CCCC/C=C/C1CCCCO1 (stereo unspecified)
T/C (endpoint: mean survival time, dose: 50.0 mg/kg/injection, schedule: Q01DX009 (ip), vehicle: saline with Tween-80): 94 % of control | T/C [9]: 97 % of control | T/C [10]: 105 % of control

OC(CC1=NCCS1)(c1ccccc1)c1ccccc1
T/C [1]: 93 % of control | T/C [2]: 87 % of control | T/C [3]: 98 % of control

O=c1ccn(C2OC(CO)C(O)C2O)c(/C=C(\O)c2ccccc2)n1 (stereo unspecified)
T/C (endpoint: mean survival time, dose: 12.5 mg/kg/injection, schedule: Q01DX005 (ip), vehicle: distilled water + Tween-80): 105 % of control | T/C (endpoint: mean survival time, dose: 25.0 mg/kg/injection, schedule: Q01DX005 (ip), vehicle: distilled water + Tween-80): 97 % of control | T/C (endpoint: mean survival time, dose: 50.0 mg/kg/injection, schedule: Q01DX005 (ip), vehicle: distilled water + Tween-80): 97 % of control | T/C (endpoint: mean survival time, dose: 100.0 mg/kg/injection, schedule: Q01DX005 (ip), vehicle: distilled water + Tween-80): 102 % of control | T/C (endpoint: mean survival time, dose: 200.0 mg/kg/injection, schedule: Q01DX005 (ip), vehicle: distilled water + Tween-80): 102 % of control

CCOC(=O)C(N)CSCc1ccccc1 (stereo unspecified)
T/C [8]: 103 % of control | T/C (endpoint: mean survival time, dose: 200.0 mg/kg/injection, schedule: Q04DX003 (ip), vehicle: saline): 97 % of control | T/C (endpoint: mean survival time, dose: 400.0 mg/kg/injection, schedule: Q04DX003 (ip), vehicle: saline): 101 % of control

C/C=C1\CC2C=CC1C2 (stereo unspecified) (tested in a mixture with another compound)
T/C (endpoint: mean survival time, dose: 80.5 mg/kg/injection, schedule: Q01DX009 (ip), vehicle: saline with Tween-80): 98 % of control | T/C (endpoint: mean survival time, dose: 161.0 mg/kg/injection, schedule: Q01DX009 (ip), vehicle: saline with Tween-80): 87 % of control

CCCCCCCC(=O)Nc1cc(C(F)(F)F)ccc1Cl
T/C [9]: 93 % of control | T/C [10]: 96 % of control | T/C [11]: 94 % of control

O=C1c2ccccc2C(=O)c2c(O)ccc(O)c21
T/C [6]: 106 % of control | T/C [13]: 88 % of control | T/C [7]: 97 % of control | T/C [1]: 94 % of control | T/C [14]: 91 % of control | T/C (endpoint: mean survival time, dose: 200.0 mg/kg/injection, schedule: Q01DX009 (ip), vehicle: saline): 109 % of control | T/C [2]: 102 % of control | T/C [15]: 86 % of control | T/C [3]: 103 % of control

O=C(/C=C/c1ccc(Cl)cc1)c1ccc(Cl)cc1
T/C [1]: 98 % of control | T/C [2]: 90 % of control | T/C [3]: 93 % of control
